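Tested at 5 concentrations; 48 h exposure; 96-well plates; endpoints linearly interpolated, else capped at highest concentration. Abbreviation: GI50, concentration required for 50% inhibition of growth. TGI is the concentration that stops growth completely.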
Key:
Test in all cases: NCI anticancer screen, dose series, 48 h
[1] = test system: DU-145 prostate
[2] = test system: KM12 colon
[3] = test system: MCF7 breast
[4] = test system: NCI-H23 lung
[5] = test system: NCI/ADR-RES ovarian
[6] = test system: RPMI-8226 leukemia
[7] = test system: RXF 393 renal
[8] = test system: SK-MEL-2 melanoma
[9] = test system: SK-MEL-28 melanoma
[10] = test system: SW-620 colon

Compound | GI50 [1] [µM] | TGI [1] [µM] | GI50 [2] [µM] | TGI [2] [µM] | GI50 [3] [µM] | TGI [3] [µM] | GI50 [4] [µM] | TGI [4] [µM] | GI50 [5] [µM] | TGI [5] [µM] | GI50 [6] [µM] | TGI [6] [µM] | GI50 [7] [µM] | TGI [7] [µM] | GI50 [8] [µM] | TGI [8] [µM] | GI50 [9] [µM] | TGI [9] [µM] | GI50 [10] [µM] | TGI [10] [µM]
CC/C=C\C[C@H](O)C/C=C1/C(=O)C=C[C@@H]1C/C=C\CCCC(=O)NC | 2.73 | 12.7 | 1.36 | 2.79 | 0.455 | 10.7 | 1.82 | 4.22 | 2.5 | 10.5 | 0.957 | 6 | 1.67 | 3.17 | 2.24 | 6.35 | 1.69 | 3.6 | 1.28 | 4.63
Cc1cc(O)cc(C)c1/C=C/c1cncc(C(=O)OC(C)(C)C)c1 | 17 | > 25 | 15.2 | > 25 | 11.8 | > 25 | > 20 | > 25 | 14.6 | > 25 | > 22.4 | > 25 | 9.75 | > 25 | > 22.1 | > 25 | 17.9 | > 25 | 20.2 | > 25
CC(C)(C)OC(=O)NCCCCCCCCCCn1c2c(c3ccccc3c1=O)C(=O)c1ccccc1-2 | 96.6 | > 100 | > 100 | > 100 | > 100 | > 100 | 34.2 | > 100 | > 100 | > 100 | 79.7 | > 100 | 13 | 37.4 | 21.1 | 49.7 | > 100 | > 100 | > 100 | > 100
CC(=O)c1ccc2c(c1)N(CCCN(C)C)c1ccccc1S2 | 17.1 | 34.3 | 15.7 | 29.6 | 16.6 | 34.5 | 17.1 | 44.4 | 13.6 | 28.3 | 18 | 43.3 | 8.86 | 22 | 18.1 | 35.7 | 16.2 | 32 | 16.5 | 31.8
COc1ccc(Oc2cc(NCCC(F)(F)F)c3ncc(-c4ccc(C(=O)NC5CC5)c(C)c4)n3n2)c(F)c1F | 0.423 | > 100 | 1.44 | > 100 | 0.822 | > 100 | 4.16 | > 100 | 0.198 | > 80.6 | 0.656 | > 100 | 0.425 | 31.9 | 0.552 | 26.6 | 4.94 | 59.1 | 0.125 | > 100
COc1cc2c(cc1O)C(c1cc(O)c(O)c(OC)c1)C(O)(C(=O)O)C(CO)C2O (stereo not given) |  | > 100 |  | > 100 |  | 42.5 |  | > 100 |  | > 100 |  | > 100 |  | > 100 |  | > 100 |  | > 100 |  | 76.5
COC(=O)/C(=C\c1c(-c2ccccc2)[nH]c2ccccc12)S(C)(=O)=O | 2.48 | 6.11 | 1.48 | 4.42 | 2.92 | 18.2 | 7.95 | 41.8 | 3.28 | > 100 | 6.15 | 96.4 | 7.23 | 68.2 | 11.8 | 28.4 | 6.04 | 21.9 | 2.92 | 15.9
Oc1c2c(c(O)c3ccccc13)C1(N=N2)c2ccccc2Oc2ccccc21 |  | 37 |  | 38.6 |  | 13.6 |  | > 100 |  | 33.4 |  | 14.7 |  | 4.65 |  | 27.4 |  | 28.8 |  | 18.1
FC(F)(F)c1[nH]ncc1-c1nc2ccc3[nH]ncc3c2c2c1CCCC2 | 1.58 | 10.9 | 1.19 | 11.8 | 1.67 | 10.1 | 1.52 | 4.32 | 2.49 | 13.9 | 1.42 | 6.66 | 1.13 | 2.35 | 1.64 | 3.61 | 1.41 | 4.86 | 1.75 | 11
O=Nc1c(O)c2ccccc2c2ccccc12 | 0.961 | 2.23 | 1.76 | 3.34 | 1.46 | 4.11 | 0.464 | 3.86 | 0.387 | 2.95 | 1.2 | > 21.9 | 1.72 | 3.23 | 1.8 | 3.99 | 1.68 | 3.07 | 1.2 | 3.19
CNCCCn1c2c(c3ccc(F)cc3c1=O)C(=O)c1cc(OC)cnc1-2 | 0.202 | 1.12 | 0.242 | 1.48 | 0.0344 | 3.43 | 0.312 | 1.97 | 0.431 | 9.51 | 0.203 | 0.912 | 0.316 | 1.38 | 1.6 | 7.37 | 1.44 | 3.94 | 0.184 | 2.03
